From US9724355B2, “Fulvestrant compositions and methods of use” (SHIMODA BIOTECH (PTY) LTD, priority 2010, dated 2017)
Values after ≈ are worked out from the molar mass of the structure shown. Like-named read-outs stand apart in the source and are kept apart here.

Assay: Fulvestrant aqueous solubility in the presence and absence of cyclodextrins (excess drug, shaken 24 h, filtered, HPLC)
Type: physicochemical
Settings: for Quantity of Fulvestrant Diluted Run 2 / Average Concentration / Quantity of Fulvestrant Diluted Run 1: diluted sample; for solubility at 24 h: 22 °C
Protocol: The HPLC system used for the chromatographic determination of fulvestrant consisted of a Waters 600E quaternary gradient pump, a Waters 717plus WISP auto-sampler and a Waters 2487 Dual A, Absorbance detector. Separation was performed using a Phenomenex Luna C18 column (250×4.6 mm; 5 urn) (Phenomenex, Torrance, Calif.) (supplied by Separations, South Africa) and a mobile phase consisting of 50% MeCN:22.5% ddH2O :27.5% MeOH. The mobile phase was degassed and filtered prior to use. […] Sample run times were 15 minutes. The UV detector wavelength was set to 280 nm.
(§1) 1 mL of each of the following aqueous solutions was prepared containing 0; 25; 50; 75 and 100 mg/mL ACD in ddHiO. Excess fulvestrant was added to each of these solutions and the samples were shaken for 24 hours on an orbital shaker at 200 rpm and at 22° C. room temperature. Excess fulvestrant was present in all samples at all times. After 24-hours, the samples were filtered through 0.45 μm syringe tip filters, diluted according to requirements and assayed by HPLC.
as §1, with “5; 7.5; 10” for “25; 50; 75”, “15” for “100”, “BCD” for “ACD”, “ddH2O.” for “ddHiO.”
as §1, with “0;” for “0; 25;”, “100; 150; 200; 250; 300; 350” for “75”, “400” for “100”, “MBCD” for “ACD”, “ddH2O.” for “ddHiO.”
as §1, with “0;” for “0; 25;”, “100; 150; 200; 250; 300; 350” for “75”, “400” for “100”, “HPBCD” for “ACD”, “ddH2O.” for “ddHiO.”
as §1, with “0;” for “0; 25;”, “100; 150; 200; 250; 300; 350” for “75”, “400” for “100”, “SBEBCD” for “ACD”, “ddH2O.” for “ddHiO.”
as §1, with “0;” for “0; 25;”, “100; 150;” for “75”, “200” for “100”, “GCD” for “ACD”, “ddHO.” for “ddHiO.”
as §1, with “0;” for “0; 25;”, “100; 150; 200; 250; 300; 350” for “75”, “400” for “100”, “HPGCD” for “ACD”, “ddH2O.” for “ddHiO.”

**Q.** What does the source list for `C[C@]12CC[C@@H]3c4ccc(O)cc4C[C@@H](CCCCCCCCC[S+]([O-])CCCC(F)(F)C(F)(F)F)[C@H]3[C@@H]1CC[C@@H]2O` (stereo partly drawn) [Fulvestrant, 7-alpha-[9-(4,4,5,5,5-pentafluoropentylsulphinyl)nonyl]estra-1,3,5-(10)-triene-3,17-beta-diol]?
**A.** Quantity of Fulvestrant Diluted Run 2 (150 mg/mL HPBCD): 93.50 µg/mL; True Fulvestrant Concentration (150 mg/mL HPGCD in ddH2O, 22° C., 24 h): 0.203 mg/mL; Average Concentration (150 mg/mL HPGCD): 220.81 µg/mL; Quantity of Fulvestrant Diluted Run 1 (150 mg/mL HPGCD): 220.67 µg/mL; Quantity of Fulvestrant Diluted Run 2 (150 mg/mL HPGCD): 220.94 µg/mL; True Fulvestrant Concentration (150 mg/mL MBCD in ddH2O, 22° C., 24 h): 6.744 mg/mL; Average Concentration (150 mg/mL MBCD): 67.44 µg/mL; Quantity of Fulvestrant Diluted Run 1 (150 mg/mL MBCD): 67.40 µg/mL; Quantity of Fulvestrant Diluted Run 2 (150 mg/mL MBCD): 67.47 µg/mL; True Fulvestrant Concentration (150 mg/mL SBEBCD in ddH2O, 22° C., 24 h): 0.273 mg/mL; Average Concentration (150 mg/mL SBEBCD): 272.92 µg/mL; Quantity of Fulvestrant Diluted Run 1 (150 mg/mL SBEBCD): 273.01 µg/mL; Quantity of Fulvestrant Diluted Run 2 (150 mg/mL SBEBCD): 272.83 µg/mL; True Fulvestrant Concentration (200 mg/mL GCD in ddH2O, 22° C., 24 h): <0.010 mg/mL; Average Concentration (200 mg/mL GCD): <10.00 µg/mL; Quantity of Fulvestrant Diluted Run 1 (200 mg/mL GCD): <10.000 µg/mL; Quantity of Fulvestrant Diluted Run 2 (200 mg/mL GCD): <10.000 µg/mL; True Fulvestrant Concentration (200 mg/mL HPBCD in ddH2O, 22° C., 24 h): 1.563 mg/mL; Average Concentration (200 mg/mL HPBCD): 99.30 µg/mL; Quantity of Fulvestrant Diluted Run 1 (200 mg/mL HPBCD): 156.30 µg/mL; Quantity of Fulvestrant Diluted Run 2 (200 mg/mL HPBCD): 42.30 µg/mL; True Fulvestrant Concentration (200 mg/mL HPGCD in ddH2O, 22° C., 24 h): 0.300 mg/mL; Average Concentration (200 mg/mL HPGCD): 334.71 µg/mL; Quantity of Fulvestrant Diluted Run 1 (200 mg/mL HPGCD): 334.75 µg/mL; Quantity of Fulvestrant Diluted Run 2 (200 mg/mL HPGCD): 334.66 µg/mL; True Fulvestrant Concentration (200 mg/mL MBCD in ddH2O, 22° C., 24 h): 10.694 mg/mL; Average Concentration (200 mg/mL MBCD): 106.94 µg/mL; Quantity of Fulvestrant Diluted Run 1 (200 mg/mL MBCD): 106.87 µg/mL; Quantity of Fulvestrant Diluted Run 2 (200 mg/mL MBCD): 107.01 µg/mL; True Fulvestrant Concentration (200 mg/mL SBEBCD in ddH2O, 22° C., 24 h): 0.399 mg/mL; Average Concentration (200 mg/mL SBEBCD): 398.81 µg/mL; Quantity of Fulvestrant Diluted Run 1 (200 mg/mL SBEBCD): 398.52 µg/mL; Quantity of Fulvestrant Diluted Run 2 (200 mg/mL SBEBCD): 399.09 µg/mL; True Fulvestrant Concentration (250 mg/mL HPBCD in ddH2O, 22° C., 24 h): 2.377 mg/mL; Average Concentration (250 mg/mL HPBCD): 118.84 µg/mL; Quantity of Fulvestrant Diluted Run 1 (250 mg/mL HPBCD): 118.71 µg/mL; Quantity of Fulvestrant Diluted Run 2 (250 mg/mL HPBCD): 118.97 µg/mL; True Fulvestrant Concentration (250 mg/mL HPGCD in ddH2O, 22° C., 24 h): 0.215 mg/mL; Average Concentration (250 mg/mL HPGCD): 473.84 µg/mL; Quantity of Fulvestrant Diluted Run 1 (250 mg/mL HPGCD): 474.68 µg/mL; Quantity of Fulvestrant Diluted Run 2 (250 mg/mL HPGCD): 472.99 µg/mL; True Fulvestrant Concentration (250 mg/mL MBCD in ddH2O, 22° C., 24 h): 17.429 mg/mL; Average Concentration (250 mg/mL MBCD): 174.29 µg/mL; Quantity of Fulvestrant Diluted Run 1 (250 mg/mL MBCD): 174.30 µg/mL; Quantity of Fulvestrant Diluted Run 2 (250 mg/mL MBCD): 174.28 µg/mL; True Fulvestrant Concentration (250 mg/mL SBEBCD in ddH2O, 22° C., 24 h): 0.609 mg/mL; Average Concentration (250 mg/mL SBEBCD): 304.74 µg/mL; Quantity of Fulvestrant Diluted Run 1 (250 mg/mL SBEBCD): 304.32 µg/mL; Quantity of Fulvestrant Diluted Run 2 (250 mg/mL SBEBCD): 305.15 µg/mL; True Fulvestrant Concentration (300 mg/mL HPBCD in ddH2O, 22° C., 24 h): 3.312 mg/mL; Average Concentration (300 mg/mL HPBCD): 165.62 µg/mL; Quantity of Fulvestrant Diluted Run 1 (300 mg/mL HPBCD): 164.70 µg/mL; Quantity of Fulvestrant Diluted Run 2 (300 mg/mL HPBCD): 166.54 µg/mL; True Fulvestrant Concentration (300 mg/mL HPGCD in ddH2O, 22° C., 24 h): 0.603 mg/mL; Average Concentration (300 mg/mL HPGCD): 392.50 µg/mL; Quantity of Fulvestrant Diluted Run 1 (300 mg/mL HPGCD): 400.24 µg/mL; Quantity of Fulvestrant Diluted Run 2 (300 mg/mL HPGCD): 384.76 µg/mL; True Fulvestrant Concentration (300 mg/mL MBCD in ddH2O, 22° C., 24 h): 22.673 mg/mL; Average Concentration (300 mg/mL MBCD): 226.73 µg/mL; Quantity of Fulvestrant Diluted Run 1 (300 mg/mL MBCD): 226.52 µg/mL; Quantity of Fulvestrant Diluted Run 2 (300 mg/mL MBCD): 226.94 µg/mL; True Fulvestrant Concentration (300 mg/mL SBEBCD in ddH2O, 22° C., 24 h): 0.852 mg/mL; Average Concentration (300 mg/mL SBEBCD): 425.89 µg/mL; Quantity of Fulvestrant Diluted Run 1 (300 mg/mL SBEBCD): 425.82 µg/mL; Quantity of Fulvestrant Diluted Run 2 (300 mg/mL SBEBCD): 425.96 µg/mL; True Fulvestrant Concentration (350 mg/mL HPBCD in ddH2O, 22° C., 24 h): 4.305 mg/mL; Average Concentration (350 mg/mL HPBCD): 215.26 µg/mL; Quantity of Fulvestrant Diluted Run 1 (350 mg/mL HPBCD): 215.41 µg/mL; Quantity of Fulvestrant Diluted Run 2 (350 mg/mL HPBCD): 215.10 µg/mL; True Fulvestrant Concentration (350 mg/mL HPGCD in ddH2O, 22° C., 24 h): 0.802 mg/mL; Average Concentration (350 mg/mL HPGCD): 502.97 µg/mL; Quantity of Fulvestrant Diluted Run 1 (350 mg/mL HPGCD): 500.71 µg/mL; Quantity of Fulvestrant Diluted Run 2 (350 mg/mL HPGCD): 505.22 µg/mL; True Fulvestrant Concentration (350 mg/mL MBCD in ddH2O, 22° C., 24 h): 29.275 mg/mL; Average Concentration (350 mg/mL MBCD): 292.75 µg/mL; Quantity of Fulvestrant Diluted Run 1 (350 mg/mL MBCD): 293.21 µg/mL; Quantity of Fulvestrant Diluted Run 2 (350 mg/mL MBCD): 292.29 µg/mL; True Fulvestrant Concentration (350 mg/mL SBEBCD in ddH2O, 22° C., 24 h): 1.140 mg/mL; Average Concentration (350 mg/mL SBEBCD): 379.96 µg/mL; Quantity of Fulvestrant Diluted Run 1 (350 mg/mL SBEBCD): 382.24 µg/mL; Quantity of Fulvestrant Diluted Run 2 (350 mg/mL SBEBCD): 377.67 µg/mL; True Fulvestrant Concentration (400 mg/mL HPBCD in ddH2O, 22° C., 24 h): 5.473 mg/mL; Average Concentration (400 mg/mL HPBCD): 273.67 µg/mL; Quantity of Fulvestrant Diluted Run 1 (400 mg/mL HPBCD): 275.20 µg/mL; Quantity of Fulvestrant Diluted Run 2 (400 mg/mL HPBCD): 272.14 µg/mL; True Fulvestrant Concentration (400 mg/mL HPGCD in ddH2O, 22° C., 24 h): 1.061 mg/mL; Average Concentration (400 mg/mL HPGCD): 468.43 µg/mL; Quantity of Fulvestrant Diluted Run 1 (400 mg/mL HPGCD): 486.39 µg/mL; Quantity of Fulvestrant Diluted Run 2 (400 mg/mL HPGCD): 450.47 µg/mL; True Fulvestrant Concentration (400 mg/mL MBCD in ddH2O, 22° C., 24 h): 35.892 mg/mL; Average Concentration (400 mg/mL MBCD): 358.92 µg/mL; Quantity of Fulvestrant Diluted Run 1 (400 mg/mL MBCD): 359.13 µg/mL; Quantity of Fulvestrant Diluted Run 2 (400 mg/mL MBCD): 358.71 µg/mL; True Fulvestrant Concentration (400 mg/mL SBEBCD in ddH2O, 22° C., 24 h): 1.507 mg/mL; Average Concentration (400 mg/mL SBEBCD): 502.17 µg/mL; Quantity of Fulvestrant Diluted Run 1 (400 mg/mL SBEBCD): 503.13 µg/mL; Quantity of Fulvestrant Diluted Run 2 (400 mg/mL SBEBCD): 501.21 µg/mL; solubility at 24 h (aqueous cyclodextrin solution, aqueous with cosolvent or surfactant or cyclodextrin, thermodynamic from solid, enhancement with ACD, SBEBCD and HPGCD, read-out: fulvestrant aqueous solubilities): 1000 to 2000 µg/mL; solubility at 24 h (aqueous cyclodextrin solution, aqueous with cosolvent or surfactant or cyclodextrin, thermodynamic from solid, in 400 mg/mL HPBCD, read-out: aqueous solubility of fulvestrant): 5500 µg/mL (≈ 9.06 mM); solubility at 24 h (aqueous cyclodextrin solution, aqueous with cosolvent or surfactant or cyclodextrin, thermodynamic from solid, in 400 mg/mL MBCD, read-out: fulvestrant aqueous solubility): 35900 µg/mL (≈ 59.2 mM); solubility thermodynamic at 24 h (water (ddH2O) without cyclodextrin, water, thermodynamic from solid, 0 mg/mL SBEBCD in ddH2O, 22° C., 24 h, read-out: True Fulvestrant Concentration): < 10 µg/mL; solubility at 24 h (water (ddH2O), water, thermodynamic from solid, absence of cyclodextrin, read-out: aqueous solubility of fulvestrant): < 10 µg/mL
